A word on the GI50: it is the concentration that inhibits growth by half.

The values below come from ChEMBL document CHEMBL1201862, “PubChem BioAssay data set” (2004).

Among the test systems are 786-0; ACHN; BT-549; CAKI-1; HCC 2998; HOP-62; HOP-92; Hs-578T; MDA-MB-435; OVCAR-8; PC-3; RXF 393; SF-268; SK-MEL-2; SK-OV-3; SN12C; SW-620; T47D; UACC-257; SNB-75.
Assay in all cases: DTP human tumour cell line panel, 48 h

SMILES strings stand for the structures.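 Briefly, cells in 96-well plates were exposed to five compound concentrations for 48 h, and endpoints were estimated by linear interpolation. GI50 marks 50% less growth.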 Calls of active or inactive are those of the source. No stated cut-off is given here; in the data, active = GI50 up to about 1.1 µM and inactive = higher.

For `CCNc1ccc2c(c1)C(=O)N(OS(C)(=O)=O)C2=O`, the GI50 is 34.1 µM (inactive) in the assay on 786-0; 37.7 µM (inactive) in the assay with ACHN; 71.4 µM (inactive) in the assay with BT-549; 70 µM (inactive) in the assay on CAKI-1; > 100 µM (inactive) in the assay with HCC 2998; > 100 µM (inactive) in the assay on HOP-62. Also, the GI50 in the assay with HOP-92 was > 100 µM (inactive); in the assay on Hs-578T it was > 100 µM (inactive); in the assay with MDA-MB-435, > 100 µM (inactive); in the assay on OVCAR-8, > 100 µM (inactive); in the assay on PC-3, > 100 µM (inactive); with RXF 393 it was 32.4 µM (inactive). In addition, the GI50 in the assay on SF-268 was > 100 µM (inactive); in the assay with SK-MEL-2, 65.6 µM (inactive); in the assay with SK-OV-3, > 100 µM (inactive); with SN12C, > 100 µM (inactive); with SW-620, 37.6 µM (inactive); in the assay on T47D it was > 100 µM (inactive). For the same compound, the GI50 with UACC-257 was > 100 µM (inactive).
As to `CC(C)CNC(=O)Cn1c(-c2ccccc2)cc2ccccc21`, the GI50 in the assay on 786-0, with ACHN, in the assay on BT-549, in the assay with CAKI-1, in the assay with HCC 2998 and in the assay with HOP-62 was > 100 µM (inactive) in each case. In addition, the GI50 in the assay with Hs-578T is 19.5 µM (inactive); in the assay on MDA-MB-435, > 100 µM (inactive); with OVCAR-8, > 100 µM (inactive); in the assay with PC-3, > 100 µM (inactive); in the assay on RXF 393, > 100 µM (inactive); with SF-268 it was > 100 µM (inactive). Also, the GI50 with SK-MEL-2, in the assay with SK-OV-3, in the assay with SN12C, in the assay on SNB-75, in the assay with SW-620 and in the assay on T47D was > 100 µM (inactive) in each case. Besides, in the assay on UACC-257, the GI50 was > 100 µM (inactive).
Regarding `COc1ccc(/C=N/N2C(=O)c3c(N)c(C#N)c(-c4ccccc4)c(-c4ccccc4)c3C2=O)cc1`, the GI50 is 64.6 µM (inactive) in the assay on 786-0; 44.7 µM (inactive) in the assay with ACHN; > 100 µM (inactive) in the assay with BT-549; > 100 µM (inactive) in the assay on CAKI-1; > 100 µM (inactive) in the assay with HCC 2998; 84.3 µM (inactive) in the assay with HOP-92. The GI50 is > 100 µM (inactive) in the assay on Hs-578T; > 100 µM (inactive) in the assay with MDA-MB-435; 82.4 µM (inactive) in the assay with OVCAR-8; > 100 µM (inactive) with PC-3; 72.8 µM (inactive) with RXF 393; > 100 µM (inactive) in the assay on SF-268. For the same compound, the GI50 with SK-MEL-2 is > 100 µM (inactive); in the assay on SN12C, > 100 µM (inactive); in the assay on SNB-75, 88.7 µM (inactive); with SW-620, > 100 µM (inactive); with T47D, > 100 µM (inactive); in the assay on UACC-257 it was > 100 µM (inactive).
For the compound `CCN(CC)c1ccc(/C=C/C2=NN(c3cccc(S(=O)(=O)O)c3)C3(C2)SCC(=O)N3c2nc3ccccc3s2)cc1` (centres undefined), the GI50 was 63.8 µM (inactive) with 786-0; 25.8 µM (inactive) in the assay on ACHN; 60.1 µM (inactive) with BT-549; 76.6 µM (inactive) in the assay with CAKI-1; 35.2 µM (inactive) in the assay with HCC 2998; 44.9 µM (inactive) with HOP-92. For the same compound, the GI50 is 33.3 µM (inactive) in the assay with Hs-578T; 23.6 µM (inactive) in the assay with MDA-MB-435; 33.6 µM (inactive) with OVCAR-8; 25.8 µM (inactive) in the assay on PC-3; > 100 µM (inactive) in the assay on RXF 393; 40.5 µM (inactive) in the assay with SF-268. Further, the GI50 in the assay on SK-MEL-2 is 40.1 µM (inactive); in the assay with SN12C, 59 µM (inactive); in the assay on SNB-75 it was 74.3 µM (inactive); with SW-620, 42.9 µM (inactive); with T47D, 17.6 µM (inactive); in the assay with UACC-257, 30.5 µM (inactive).
As to `O=[N+]([O-])c1ccc(CSC2=C(c3ccc(Cl)cc3)S/C(=C3\SC(SCc4ccc([N+](=O)[O-])cc4)=C(c4ccc(Cl)cc4)S3)S2)cc1`, the GI50 in the assay on 786-0, in the assay with ACHN, in the assay on BT-549, in the assay with CAKI-1, in the assay on HCC 2998 and with HOP-62 was > 100 µM (inactive) throughout. Further, the GI50 with HOP-92 is < 0.01 µM (active); in the assay with Hs-578T, > 100 µM (inactive); with MDA-MB-435 it was > 100 µM (inactive); with OVCAR-8, > 100 µM (inactive); in the assay on PC-3, > 100 µM (inactive); in the assay on RXF 393, > 100 µM (inactive). The GI50 with SF-268, with SK-MEL-2, in the assay with SK-OV-3, in the assay on SN12C, in the assay on SW-620 and with T47D was > 100 µM (inactive) each time. Besides, the GI50 with UACC-257 was > 100 µM (inactive).
Regarding `C[C@H](NC1=CC(=O)C(N[C@@H](C)[C@H](O)c2ccccc2)=CC1=O)[C@H](O)c1ccccc1`, the GI50 in the assay on 786-0 was > 100 µM (inactive); in the assay on ACHN, 96.6 µM (inactive); in the assay on BT-549, 52.8 µM (inactive); in the assay with CAKI-1, > 100 µM (inactive); in the assay on HOP-62 it was > 100 µM (inactive); in the assay on HOP-92 it was > 100 µM (inactive). Moreover, the GI50 is 37.2 µM (inactive) in the assay with Hs-578T; 81.5 µM (inactive) with MDA-MB-435; > 100 µM (inactive) in the assay on OVCAR-8; 43.1 µM (inactive) in the assay with PC-3; > 100 µM (inactive) in the assay with RXF 393; > 100 µM (inactive) in the assay with SF-268. Also, the GI50 in the assay with SK-MEL-2 was > 100 µM (inactive); in the assay on SK-OV-3 it was 69 µM (inactive); in the assay with SN12C, > 100 µM (inactive); in the assay on SW-620, > 100 µM (inactive); in the assay on T47D it was 53.1 µM (inactive); in the assay with UACC-257, > 100 µM (inactive).
For the compound `CCOC(=O)c1cc(C2CCN(c3ccccc3)C2=O)c(C(=O)/C=C(/C)O)[nH]1` (centres undefined), the GI50 in the assay on 786-0 was 54.5 µM (inactive); in the assay with ACHN, > 100 µM (inactive); in the assay on BT-549, 61.2 µM (inactive); in the assay on CAKI-1, 47.8 µM (inactive); in the assay on HCC 2998, > 100 µM (inactive); in the assay with HOP-62 it was > 100 µM (inactive). For the same compound, the GI50 is 93.8 µM (inactive) with Hs-578T; 60.8 µM (inactive) in the assay with MDA-MB-435; > 100 µM (inactive) in the assay with OVCAR-8; 88.3 µM (inactive) in the assay on PC-3; 21.6 µM (inactive) in the assay on RXF 393; > 100 µM (inactive) with SF-268. Moreover, the GI50 with SK-MEL-2 was > 100 µM (inactive); in the assay on SK-OV-3 it was 96.4 µM (inactive); with SN12C it was > 100 µM (inactive); in the assay on SNB-75 it was 74.5 µM (inactive); in the assay on SW-620 it was > 100 µM (inactive); with T47D, 36.6 µM (inactive). The GI50 in the assay on UACC-257 is 89.1 µM (inactive).
With `Cc1ncc([N+](=O)[O-])n1CCNCCCCn1ccnc1[N+](=O)[O-]`, the GI50 with 786-0 is > 100 µM (inactive); in the assay with ACHN, > 100 µM (inactive); in the assay on BT-549 it was 45.5 µM (inactive); in the assay with CAKI-1, > 100 µM (inactive); in the assay on HOP-62, > 100 µM (inactive); in the assay on HOP-92 it was > 100 µM (inactive). Further, the GI50 in the assay on Hs-578T, in the assay on MDA-MB-435, with OVCAR-8, with PC-3, in the assay on RXF 393 and in the assay on SF-268 was > 100 µM (inactive) in each case. Moreover, the GI50 in the assay on SK-MEL-2, in the assay on SK-OV-3, in the assay with SN12C, with SNB-75, with SW-620 and with T47D was > 100 µM (inactive) each time. The GI50 with UACC-257 was > 100 µM (inactive).
For `O=C1c2ccccc2-c2nc(-c3cccc([N+](=O)[O-])c3)nnc21`, the GI50 with 786-0 is 30.5 µM (inactive); in the assay with ACHN, 3.98 µM (inactive); in the assay on BT-549 it was 19.5 µM (inactive); in the assay with CAKI-1, 4.24 µM (inactive); with HOP-92, > 100 µM (inactive); with Hs-578T, 12.4 µM (inactive). Also, the GI50 in the assay with MDA-MB-435 is 1.97 µM (inactive); with OVCAR-8, 11.4 µM (inactive); with PC-3 it was 40.2 µM (inactive); with RXF 393, 24.3 µM (inactive); in the assay on SF-268, 43.1 µM (inactive); in the assay with SK-MEL-2, 18.9 µM (inactive). In addition, the GI50 is > 100 µM (inactive) with SK-OV-3; 21.4 µM (inactive) in the assay on SN12C; 21.4 µM (inactive) with SNB-75; 15.8 µM (inactive) in the assay with SW-620; 44.5 µM (inactive) in the assay with T47D; 3.24 µM (inactive) with UACC-257.
Turning to `O=C(CCc1cccc(O)c1)NCCc1ccc(O)cc1`, the GI50 in the assay with 786-0 is > 100 µM (inactive); in the assay with ACHN, 95.9 µM (inactive); in the assay with BT-549 it was > 100 µM (inactive); in the assay with CAKI-1, > 100 µM (inactive); with HOP-62, > 100 µM (inactive); in the assay on HOP-92, > 100 µM (inactive). Also, the GI50 in the assay with Hs-578T, in the assay on MDA-MB-435, in the assay with OVCAR-8, in the assay on PC-3, in the assay with RXF 393 and in the assay on SF-268 was > 100 µM (inactive) throughout. In addition, the GI50 with SK-MEL-2, in the assay with SK-OV-3, with SN12C, with T47D and in the assay with UACC-257 was > 100 µM (inactive) each time.
